Assay results: ChEMBL document CHEMBL1134848, “Synthesis and biological evaluation of a spongistatin AB-spiroketal analogue” (2002)

Columns and labels:
Format in all cases: functional
KM-20L2 = assay: In vitro growth inhibitory activity on human Colon (KM20L2) cell line
MCF7 = assay: In vitro growth inhibitory activity on human Breast adn (MCF-7) cell line
NCI-H460 = assay: In vitro growth inhibitory activity on human Lung-NSC (NCI-H460) cell line
DU-145 = assay: In vitro growth inhibitory activity on human Prostate (DU-145) cell line
BXPC-3 = assay: In vitro growth inhibitory activity on human Pancreas-a (BXPC-3) cell line
SF-268 = assay: In vitro growth inhibitory activity on human CNS Gliobl (SF268) cell line

GI50 (MCF7) [µg/mL]	GI50 (NCI-H460) [µg/mL]	GI50 (DU-145) [µg/mL]	GI50 (BXPC-3) [µg/mL]	SMILES	GI50 (KM-20L2) [µg/mL]	GI50 (SF-268) [µg/mL]
> 10	> 10	> 10	> 10	OCC1CCCC2(CCCC(CO)O2)O1 (single isomer, unassigned; (-))	> 10	> 10
> 10	> 10	> 10	> 10	CC(=O)OC1CC(CCO)OC2(C1)CC(C)(O)CC(CO)O2 (single isomer, unassigned; (-))	> 10	> 10
